The test concerns the target T1, Rat Hepatic Microsomal HMG-CoA reductase (HMGR) (Rattus norvegicus, UniProt P51639).
T1 construct: Microsomes prepared from liver of rats administered with cholestyramine; from tissue
T1 sequence (P51639 1-887): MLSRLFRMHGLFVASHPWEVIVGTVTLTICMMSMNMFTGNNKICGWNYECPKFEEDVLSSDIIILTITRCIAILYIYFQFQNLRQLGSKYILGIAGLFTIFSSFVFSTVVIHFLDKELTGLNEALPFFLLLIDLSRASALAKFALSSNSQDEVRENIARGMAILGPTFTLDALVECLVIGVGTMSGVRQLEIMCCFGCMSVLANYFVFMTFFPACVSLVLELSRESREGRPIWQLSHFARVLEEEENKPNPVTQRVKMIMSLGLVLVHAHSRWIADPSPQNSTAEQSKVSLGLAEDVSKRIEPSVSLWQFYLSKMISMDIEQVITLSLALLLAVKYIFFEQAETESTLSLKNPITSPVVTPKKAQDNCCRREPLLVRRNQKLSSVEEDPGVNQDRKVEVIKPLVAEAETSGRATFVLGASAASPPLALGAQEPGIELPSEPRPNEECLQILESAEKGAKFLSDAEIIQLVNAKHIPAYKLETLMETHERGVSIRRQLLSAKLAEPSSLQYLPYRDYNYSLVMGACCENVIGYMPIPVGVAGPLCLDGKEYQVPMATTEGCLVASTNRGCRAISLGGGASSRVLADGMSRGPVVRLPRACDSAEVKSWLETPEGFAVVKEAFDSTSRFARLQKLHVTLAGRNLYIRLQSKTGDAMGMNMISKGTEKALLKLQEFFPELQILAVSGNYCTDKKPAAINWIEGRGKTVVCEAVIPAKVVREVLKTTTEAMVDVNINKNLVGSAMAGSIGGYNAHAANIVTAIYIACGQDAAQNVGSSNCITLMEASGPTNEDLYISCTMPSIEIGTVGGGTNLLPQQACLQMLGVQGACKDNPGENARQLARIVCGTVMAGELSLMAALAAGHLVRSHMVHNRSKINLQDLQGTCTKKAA
In words: Inhibitory activity against rat hepatic microsomal HMG-CoA reductase (14C-HMG-CoA substrate, 14C-mevalonolactone measured by TLC and scintillation counting). Format: biochemical. The settings on record: microsomes from liver of rats administered with cholestyramine, incubated for 10 minutes; for inhibition at 1 µM: Concentration of test compound 10^-6 M. As for the experimental part:
Experiment: Inhibitory activity against Rat Hepatic Microsomal HMG-CoA reductase (HMGR)
HMGR activities of microsomes are measured in accordance with the method of N. L. Young et al., Methods in Enzymology, 71, 498 (1981).
Microsomes prepared from liver of rats administered with cholestyramine were mixed with a solution of the compounds to be tested in dimethyl sulfoxide and ¹⁴C-HMG-CoA (substrate). After the mixture was incubated for 10 minutes, the reaction was quenched with 6N hydrochloric acid and the mixture was allowed to stand at 37°C for 15 minutes, followed by centrifugation. The supernatant was spotted on thin layer chromatography (TLC; Kieselgel 60F254 manufactured by Merck) and developed with toluene/acetone (1:1). The spot of ¹⁴C-mevalonolactone was collected and the amount of isotope was measured with a scintillation counter (Type 4640 TRI-CARB. manufactured by Paccard) to calculate an amount of the formed mevalonolactone. By comparing amounts of the formed mevalonolactone in the group treated with test compounds and the control group (without test compounds), HMGR activity inhibition rates of the test compounds were calculated.

Our source for the inhibition values is patent EP0430129A2, “Novel phenylethylene derivatives, processes for preparing the same and intermediates therefor” (TANABE SEIYAKU CO., LTD., priority 1989, dated 1991).

Usually inhibition stands for the drop in the measured response relative to a control, in per cent.

Take `O=C(O)C[C@H](O)C[C@H](O)/C=C/C(=C(c1ccc(F)cc1)c1ccc(F)cc1)c1ccco1` (single isomer, unassigned) [(-)-(3R*,5S*)]: the inhibition at 1 µM amounted to 93%.
The compound `O=C(O)C[C@H](O)C[C@H](O)/C=C/C(=C(c1ccc(F)cc1)c1ccc(F)cc1)c1ccccc1` (racemic) [(±)-(3R*,5S*) [r3]] came in with an inhibition at 1 µM of 79%. The compound also registered an inhibition at 100 µM (Concentration of test compound 10^-4 M) of 96%.
